# Values quoted from earlier work in patent publication USRE31980E, “Olefinic derivatives of amino acids” (Merrell Toraude et Compagnie, priority 1983, dated 1985).
# Legend:
# [1] = tested on: γ-aminobutyric acid transaminase
# [2] = tested on: brain level of γ-aminobutyric acid; conditions: in vivo
Structure (SMILES),"inhibition of γ-aminobutyric acid transaminase (kind of inhibition), literature [1]","duration of the reversible effect (elevated brain levels of γ-aminobutyric acid), literature [2]"
CCCC(CCC)C(=O)O [n-dipropylacetate],competitively inhibiting,about 2 hours
NCC#CC(=O)O [4-aminotetrolic acid],competitive reversible inhibitor,–
